Consider one molecule from ChEMBL document CHEMBL5154849, “Overcoming undesirable hERG affinity by incorporating fluorine atoms: A case of MAO-B inhibitors derived from 1 H-pyrrolo-[3,2-c]quinolines” (Eur J Med Chem, 2022).

The nature of the data set: in vitro. Particulars: rat, liver microsomes. In general terms: Liver microsomes are vesicles of endoplasmic reticulum, rich in cytochrome P450 enzymes.

On to `COc1cccc(Cn2ccc3c(N4CCC(F)(F)CC4)nc4ccccc4c32)c1`, for which the CLint scaled (usually a measure of how fast metabolising enzymes remove a compound, apart from limits set by blood flow) at 10 µM was determined as 43 mL/min/kg.
